What all share (type): in vivo
Assay [1] deals with Hordeum murinum. In words: Post-emergence herbicidal effect, greenhouse pot test. As to conditions: 80 g a.i./ha, one-leaf stage, visual score after about 3 weeks, 100% = plants have died. On the procedure: (§1) [table] Seeds of monocotyledonous and dicotyledonous weed and crop plants are laid out in sandy loam in wood-fibre pots, covered with soil and cultivated in a greenhouse under good growth conditions. 2 to 3 weeks after sowing, the test plants are treated at the one-leaf stage. The compounds according to the invention, formulated in the form of wettable powders (WP) or as emulsion concentrates (EC), are then sprayed as aqueous suspension or emulsion at a water application rate of 600 to 800 l/ha (converted) with the addition of 0.2% of wetting agent onto the green parts of the plants. After the test plants have been left to stand in the greenhouse under optimal growth conditions for about 3 weeks, the action of the preparations is assessed visually in comparison to untreated controls (herbicidal action in percent (%): 100% activity=the plants have died, 0% activity=like control plants).

In assay [2] the test system is Lolium rigidium. The assay is described as above. The note with it: 80 g a.i./ha, one-leaf stage, visual score after about 3 weeks, 100% = plants have died. On the procedure: as §1
For assay [3], the system named is Avena fatua. The description is as above. The note with it: 80 g a.i./ha, one-leaf stage, visual score after about 3 weeks, 100% = plants have died. On the procedure: as §1
Assay [4] deals with Alopecurus myosuroides. The assay is described as above. As to conditions: 504 h, 80 g a.i./ha, one-leaf stage, visual score after about 3 weeks, 100% = plants have died, read-out: Herbicidal effect against [%] ALOMY. On the procedure:
as §1

The test system of assay [5] is Setaria viridis. The assay is described as above. As to conditions: 504 h, 80 g a.i./ha, one-leaf stage, visual score after about 3 weeks, 100% = plants have died, read-out: Herbicidal effect against [%] SETVI. On the procedure: as §1
Assay [6] deals with Echinochloa crus-galli. The assay is described as above. The note with it: 504 h, 80 g a.i./ha, one-leaf stage, visual score after about 3 weeks, 100% = plants have died, read-out: Herbicidal effect against [%] ECHCG. On the procedure: as §1
A further assay has as its system Stellaria media. The assay is described as above. As to conditions: 80 g a.i./ha, one-leaf stage, visual score after about 3 weeks, 100% = plants have died. On the procedure:
as §1

The test system of assay [7] is Hordeum murinum. In words: Pre-emergence herbicidal effect, greenhouse pot test. As to conditions: 320 g a.i./ha, visual score after 3 weeks, 100% = plants have died, 0% = like control. The source says:
(§2) Seeds of monocotyledonous and dicotyledonous weed plants and crop plants are laid out in wood-fibre pots in sandy loam and covered with soil. The compounds according to the invention formulated in the form of wettable powders (WP) or as emulsion concentrates (EC) are then applied as aqueous suspension or emulsion at a water application rate of 600 to 800 l/ha (converted) with the addition of 0.2% wetting agent to the surface of the covering soil. After the treatment, the pots are placed in a greenhouse and kept under good growth conditions for the trial plants. The damage to the test plants is scored visually after a test period of 3 weeks by comparison with untreated controls (herbicidal activity in percent (%): 100% activity=the plants have died, 0% activity=like control plants). [table]

The subject of assay [8] is Lolium rigidium. Described as above. As to conditions: 320 g a.i./ha, visual score after 3 weeks, 100% = plants have died, 0% = like control.
Description: as §2

In another assay the test system is Cyperus esculentus. The description is as above. The note with it: 320 g a.i./ha, visual score after 3 weeks, 100% = plants have died, 0% = like control.
Description: as §2

For assay [9], the system named is Avena fatua. The assay is described as above. The note with it: 504 h, 320 g a.i./ha, visual score after 3 weeks, 100% = plants have died, 0% = like control, read-out: Herbicidal effect against [%] AVEFA.
Description: as §2

The subject of assay [10] is Alopecurus myosuroides. The assay is described as above. As to conditions: 504 h, 320 g a.i./ha, visual score after 3 weeks, 100% = plants have died, 0% = like control, read-out: Herbicidal effect against [%] ALOMY.
Description: as §2

Assay [11] has as its system Setaria viridis. The description is as above. As to conditions: 504 h, 320 g a.i./ha, visual score after 3 weeks, 100% = plants have died, 0% = like control, read-out: Herbicidal effect against [%] SETVI.
Description: as §2

The test system of assay [12] is Echinochloa crus-galli. The assay is described as above. The note with it: 504 h, 320 g a.i./ha, visual score after 3 weeks, 100% = plants have died, 0% = like control, read-out: Herbicidal effect against [%] ECHCG.
Description: as §2

Molecules are shown by their SMILES.

Take `CC#Cc1cc(C)c(C2=C(OC(=O)OCC)C3(CCC(OCC)CC3)NC2=O)c(C)c1` (single isomer, unassigned) [Example P5]: the “Herbicidal effect against [%] HORMU” value in the assay with Hordeum murinum [1] and in the assay on Hordeum murinum [7] was 100% each time. Besides, the “Herbicidal effect against [%] LOLRI” value in the assay with Lolium rigidium [2] and in the assay on Lolium rigidium [8] was 100% each time. Further, the “Herbicidal effect against [%] AVEFA” value in the assay with Avena fatua [3] is 100%. Besides, the pest or weed control at 80 g/ha in the assay with Alopecurus myosuroides [4], in the assay with Setaria viridis [5] and in the assay with Echinochloa crus-galli [6] was 80 to 100% in each case. Besides, the “Herbicidal effect against [%] STEME” value with Stellaria media was determined as 100%. In addition, the “Herbicidal effect against [%] CYPES” value in the assay on Cyperus esculentus is 100%. In addition, the pest or weed control at 320 g/ha with Avena fatua [9], in the assay on Alopecurus myosuroides [10], in the assay with Setaria viridis [11] and with Echinochloa crus-galli [12] was 80 to 100% each time.

Take `CC#Cc1cc(C)c(C2=C(OC(=O)OCC)C3(CCC(OCC)CC3)NC2=O)c(C)c1` (single isomer, unassigned) [Example P6]: the “Herbicidal effect against [%] HORMU” value in the assay on Hordeum murinum [1] turned out to be 80%; in the assay on Hordeum murinum [7], 90%. In addition, the “Herbicidal effect against [%] LOLRI” value with Lolium rigidium [2] and with Lolium rigidium [8] was 100% each time. Also, in the assay on Avena fatua [3], the “Herbicidal effect against [%] AVEFA” value was 90%. The “Herbicidal effect against [%] STEME” value in the assay with Stellaria media was determined as 20%. In the assay with Cyperus esculentus, the “Herbicidal effect against [%] CYPES” value is 90%.

Turning to `CC#Cc1cc(C)c(C2=C(O)C3(CCC(OCC)CC3)NC2=O)c(CC)c1` (centres unmarked) [Example D4], the “Herbicidal effect against [%] HORMU” value with Hordeum murinum [1] and in the assay with Hordeum murinum [7] was 100% each time. For the same molecule, the “Herbicidal effect against [%] LOLRI” value in the assay with Lolium rigidium [2] and in the assay on Lolium rigidium [8] was 100% in each case. Besides, in the assay with Avena fatua [3], the “Herbicidal effect against [%] AVEFA” value stood at 100%. Also, the pest or weed control at 80 g/ha in the assay on Alopecurus myosuroides [4], with Setaria viridis [5] and with Echinochloa crus-galli [6] was 80 to 100% each time. For the same molecule, the “Herbicidal effect against [%] STEME” value with Stellaria media is 10%. Also, in the assay with Cyperus esculentus, the “Herbicidal effect against [%] CYPES” value is on record as 70%. Also, the pest or weed control at 320 g/ha with Avena fatua [9], in the assay with Alopecurus myosuroides [10], in the assay on Setaria viridis [11] and with Echinochloa crus-galli [12] was 80 to 100% throughout.

With `CC#Cc1cc(C)c(C2=C(O)C3(CCC(OCC)CC3)NC2=O)c(C)c1` (centres unmarked) [Example D6], the “Herbicidal effect against [%] HORMU” value in the assay with Hordeum murinum [1] and with Hordeum murinum [7] was 100% throughout. Also, the “Herbicidal effect against [%] LOLRI” value with Lolium rigidium [2] and in the assay with Lolium rigidium [8] was 100% each time. The “Herbicidal effect against [%] AVEFA” value with Avena fatua [3] came to 100%. Besides, the pest or weed control at 80 g/ha with Alopecurus myosuroides [4], in the assay with Setaria viridis [5] and in the assay with Echinochloa crus-galli [6] was 80 to 100% each time. Moreover, in the assay with Stellaria media, the “Herbicidal effect against [%] STEME” value is 90%. The “Herbicidal effect against [%] CYPES” value with Cyperus esculentus amounted to 100%. The pest or weed control at 320 g/ha in the assay on Alopecurus myosuroides [10], in the assay on Setaria viridis [11] and in the assay on Echinochloa crus-galli [12] was 80 to 100% each time.

As for `CC#Cc1cc(C)c(C2=C(O)C3(CCC(OCC)CC3)NC2=O)c(C)c1` (centres unmarked) [Example D7], the “Herbicidal effect against [%] HORMU” value with Hordeum murinum [1] is listed as 60%; in the assay with Hordeum murinum [7], 100%. For the same molecule, the “Herbicidal effect against [%] LOLRI” value in the assay on Lolium rigidium [2] and in the assay on Lolium rigidium [8] was 100% throughout. For the same molecule, the “Herbicidal effect against [%] AVEFA” value in the assay on Avena fatua [3] was 100%. The “Herbicidal effect against [%] STEME” value in the assay on Stellaria media is reported as 20%.

As for `CC#Cc1cc(C)c(C2=C(OC(=O)OC)C3(CCC(OCC)CC3)NC2=O)c(C)c1` (centres unmarked) [Example P7], the “Herbicidal effect against [%] HORMU” value in the assay on Hordeum murinum [1] and in the assay with Hordeum murinum [7] was 100% throughout. Further, the “Herbicidal effect against [%] LOLRI” value in the assay on Lolium rigidium [2] and with Lolium rigidium [8] was 100% in each case. For the same molecule, the “Herbicidal effect against [%] AVEFA” value in the assay with Avena fatua [3] worked out at 100%. Besides, the pest or weed control at 80 g/ha in the assay with Alopecurus myosuroides [4], with Setaria viridis [5] and with Echinochloa crus-galli [6] was 80 to 100% each time. Further, in the assay with Stellaria media, the “Herbicidal effect against [%] STEME” value is listed as 100%. For the same molecule, the “Herbicidal effect against [%] CYPES” value in the assay with Cyperus esculentus is reported as 100%. The pest or weed control at 320 g/ha with Avena fatua [9], with Alopecurus myosuroides [10], with Setaria viridis [11] and in the assay with Echinochloa crus-galli [12] was 80 to 100% in each case.

Regarding `CC#Cc1cc(C)c(C2=C(OC(=O)C(C)C)C3(CCC(OCC)CC3)NC2=O)c(C)c1` (centres unmarked) [Example P8], the “Herbicidal effect against [%] HORMU” value in the assay with Hordeum murinum [1] and in the assay with Hordeum murinum [7] was 100% each time. Also, the “Herbicidal effect against [%] LOLRI” value with Lolium rigidium [2] and with Lolium rigidium [8] was 100% throughout. In addition, the “Herbicidal effect against [%] AVEFA” value in the assay on Avena fatua [3] was found to be 100%. Besides, the pest or weed control at 80 g/ha in the assay on Alopecurus myosuroides [4], in the assay on Setaria viridis [5] and with Echinochloa crus-galli [6] was 80 to 100% in each case. Further, in the assay on Stellaria media, the “Herbicidal effect against [%] STEME” value worked out at 60%. For the same molecule, in the assay with Cyperus esculentus, the “Herbicidal effect against [%] CYPES” value is recorded as 100%. Also, the pest or weed control at 320 g/ha in the assay with Avena fatua [9], in the assay on Alopecurus myosuroides [10], in the assay on Setaria viridis [11] and in the assay with Echinochloa crus-galli [12] was 80 to 100% each time.

Take `CC#Cc1cc(C)c(C2=C(OC(=O)OCC)C3(CCC(OCC)CC3)NC2=O)c(CC)c1` (centres unmarked) [Example P9]: the “Herbicidal effect against [%] HORMU” value in the assay with Hordeum murinum [1] and with Hordeum murinum [7] was 100% throughout. For the same molecule, the “Herbicidal effect against [%] LOLRI” value with Lolium rigidium [2] and in the assay with Lolium rigidium [8] was 100% each time. Moreover, in the assay with Avena fatua [3], the “Herbicidal effect against [%] AVEFA” value came to 100%. Besides, in the assay with Stellaria media, the “Herbicidal effect against [%] STEME” value came out at 40%. In the assay on Cyperus esculentus, the “Herbicidal effect against [%] CYPES” value turned out to be 60%.

As for `CC#Cc1cc(C)c(C2=C(OC(=O)OCC)C3(CCC(OCC)CC3)NC2=O)c(CC)c1` (centres unmarked) [Example P10], the “Herbicidal effect against [%] HORMU” value with Hordeum murinum [1] amounted to 100%; in the assay on Hordeum murinum [7] it was 90%. Moreover, the “Herbicidal effect against [%] LOLRI” value with Lolium rigidium [2] and with Lolium rigidium [8] was 100% in each case. For the same molecule, the “Herbicidal effect against [%] AVEFA” value in the assay with Avena fatua [3] stood at 90%. The pest or weed control at 80 g/ha with Alopecurus myosuroides [4], with Setaria viridis [5] and with Echinochloa crus-galli [6] was 80 to 100% throughout. Moreover, in the assay with Stellaria media, the “Herbicidal effect against [%] STEME” value came to 10%. The pest or weed control at 320 g/ha with Avena fatua [9], in the assay on Alopecurus myosuroides [10], with Setaria viridis [11] and with Echinochloa crus-galli [12] was 80 to 100% throughout.

In the case of `CC#Cc1cc(C)c(C2=C(O)C3(CCC(OCC)CC3)NC2=O)c(C)c1` (centres unmarked) [Example S3], the “Herbicidal effect against [%] HORMU” value in the assay with Hordeum murinum [1] and with Hordeum murinum [7] was 100% in each case. Besides, the “Herbicidal effect against [%] LOLRI” value in the assay with Lolium rigidium [2] and with Lolium rigidium [8] was 100% each time. For the same molecule, in the assay with Avena fatua [3], the “Herbicidal effect against [%] AVEFA” value is listed as 100%. Further, the “Herbicidal effect against [%] STEME” value in the assay on Stellaria media is listed as 100%. The “Herbicidal effect against [%] CYPES” value with Cyperus esculentus stood at 80%.

In the case of `CC#Cc1cc(C)c(C2=C(O)C3(CCC(OCC)CC3)NC2=O)c(CC)c1` (centres unmarked) [Example S4], the “Herbicidal effect against [%] HORMU” value with Hordeum murinum [1] and in the assay with Hordeum murinum [7] was 100% throughout. In addition, the “Herbicidal effect against [%] LOLRI” value in the assay on Lolium rigidium [2] and in the assay on Lolium rigidium [8] was 100% in each case. In addition, the “Herbicidal effect against [%] AVEFA” value with Avena fatua [3] was 100%. Besides, the “Herbicidal effect against [%] STEME” value with Stellaria media amounted to 10%. The “Herbicidal effect against [%] CYPES” value in the assay with Cyperus esculentus turned out to be 60%.

Source of the values: patent publication US20180282275A1, “New alkynyl-substituted 3-phenylpyrrolidine-2,4-diones and use thereof as herbicides” (Bayer CropScience Aktiengesellschaft, priority 2015, published 2018).
